IC50 data for 13 molecules are collected here from patent EP4818179A1, “PREPARATION FOR AND USE OF PYRIMIDO-THIOPYRANDIONE INHIBITOR FOR KRAS G12C MUTANT PROTEIN” (Ya Therapeutics Inc, priority 2024, dated 2025).

Some results are limits rather than exact numbers.

In the experiment the test system is H358 (KRAS G12C mutant) cells. Briefly: Tumor cell proliferation inhibition experiment (Cell Titer-Glo luminescent cell viability assay). The conditions noted are these: Homo sapiens, NCI-H358, 72 h, read-out: NCI-H538 IC50(nm).
Protocol: H358 (KRAS G12C mutant) cells were digested, centrifuged, and resuspended. Cell density was determined using a Scepter automated cell counter. The cells were diluted to a solution containing 44,000 cells per milliliter. The adjusted cell solution was added to 90 µL per well in a 96-well culture plate. The 96-well plate was placed in a 37°C, 5% CO2 incubator. After culturing the cells for 24 hours, different concentrations of the test compound were added. The cells were then cultured with the compound for 72 hours in the presence of 10% fetal bovine serum. The ATP content was measured using the Cell Titer-Glo luminescent cell viability assay kit (see manufacturer's instructions for details) to assess cell growth inhibition. In short, 30 µL of Cell Titer-Glo reagent was added to each well, and the plate was shaken for 10 minutes to induce cell lysis. The fluorescence signal was detected and recorded using a Fluoroskan Ascent FL (Thermo). The maximum signal value was obtained from cells treated with dimethyl sulfoxide for 72 hours. Minimum signal value was obtained from a single culture medium (zero cell count). Inhibition rate % = (maximum signal value - minimum signal value) / (maximum signal value - minimum signal value × 100%). Data was processed using GraphPadprism 5 software. IC50 values were calculated by fitting an S-shaped dose-response curve.
For the molecule `C=C(F)C(=O)N1CCN(c2nc(OC[C@@]34CCCN3C[C@H](F)C4)nc3c2CS(=O)(=O)C(c2nc(N)cc(C)c2C(F)(F)F)C3)C[C@@H]1CC#N` (stereo partly drawn) [Compound 8, 2-((2S)-4-(7-(6-amino-4-methyl-3-(trifluoromethyl)pyridin-2-yl)-2-(((2R,7AS)-2-fluorotetrahydro-1H-pyrrolazin-7a(5H)-yl)methoxy)-6,6-dioxo-7,8-dihydro-5H-thiaran[4,3-d]pyrimidin-4-yl)-1-(2-fluoroacryloyl)pyrazin-2-yl)acetonitrile], the IC50 – broadly, the concentration that inhibits the measured activity by half – is below 10 nM.

On to `C=C(F)C(=O)N1CCN(c2nc(OC[C@@]34CCCN3C[C@H](F)C4)nc3c2CS(=O)(=O)[C@H](c2nc(N)cc(C)c2C(F)(F)F)C3)[C@@H](C)C1` [Compound 6A, 1-((3S)-4-((7S)-7-(6-amino-4-methyl-3-(trifluoromethyl)pyridin-2-yl)-2-(((2R,7AS)-2-fluorotetrahydro-1H-pyrrolazin-7a(5H)-yl)methoxy)-6,6-dioxo-7,8-dihydro-5H-thiaran[4,3-d]pyrimidin-4-yl)-3-methylpyrazin-1-yl)-2-fluoroprop-2-en-1-one], for which the IC50 was below 10 nM.

`C=CC(=O)N1CCN(c2nc(OC[C@@]34CCCN3C[C@H](F)C4)nc3c2CS(=O)(=O)[C@H](c2nc(N)cc(C)c2C(F)(F)F)C3)[C@@H](C)C1` [Compound 5A, 1-((3S)-4-((7S)-7-(6-amino-4-methyl-3-(trifluoromethyl)pyridin-2-yl)-2-(((2R,7AS)-2-fluorotetrahydro-1H-pyrrolazin-7a(5H)-yl)methoxy)-6,6-dioxo-7,8-dihydro-5H-thiaran[4,3-d]pyrimidin-4-yl)-3-methylpyrazin-1-yl)prop-2-en-1-one]: the IC50 was below 10 nM.

Take `C=C(F)C(=O)N1CCN(c2nc(OC[C@@]34CCCN3C[C@H](F)C4)nc3c2CS(=O)(=O)C(c2nc(N)cc(C)c2C(F)(F)F)C3)[C@@H](C)C1` (stereo partly drawn) [Compound 6, 1-((3S)-4-(7-(6-amino-4-methyl-3-(trifluoromethyl)pyridin-2-yl)-2-(((2R,7AS)-2-fluorotetrahydro-1H-pyrrolazin-7a(5H)-yl)methoxy)-6,6-dioxo-7,8-dihydro-5H-thiaran[4,3-d]pyrimidin-4-yl)-3-methylpyrazin-1-yl)-2-fluoroprop-2-en-1-one]: the concentration for half-maximal inhibition (IC50) is below 10 nM.

With `C=C(F)C(=O)N1CCN(c2nc(OC[C@@]34CCCN3C[C@H](F)C4)nc3c2CS(=O)(=O)[C@@H](c2nc(N)cc(C)c2C(F)(F)F)C3)[C@@H](C)C1` [Compound 6B, 1-((3S)-4-((7R)-7-(6-amino-4-methyl-3-(trifluoromethyl)pyridin-2-yl)-2-(((2R,7AS)-2-fluorotetrahydro-1H-pyrrolazin-7a(5H)-yl)methoxy)-6,6-dioxo-7,8-dihydro-5H-thiaran[4,3-d]pyrimidin-4-yl)-3-methylpyrazin-1-yl)-2-fluoroprop-2-en-1-one], the IC50 is below 10 nM.

Regarding `C=C(F)C(=O)N1CCN(c2nc(OC[C@@]34CCCN3C[C@H](F)C4)nc3c2CS(=O)(=O)[C@H](c2c(F)c(N)cc(C)c2C(F)(F)F)C3)[C@@H](C)C1` [Compound 2A, 1-((3S)-4-((7S)-7-(3-amino-2-fluoro-5-methyl-6-(trifluoromethyl)phenyl)-2-(((2R,7A S)-2-fluorotetrahydro-1H-pyrrolazin-7a(5H)-yl)methoxy)-6,6-dioxo-7,8-dihydro-5H-thiaran[4,3-d]pyrimidin-4-yl)-3-methylpyrazin-1-yl)-2-fluoroprop-2-en-1-one], the IC50 was below 10 nM.

For `C=CC(=O)N1CCN(c2nc(OC[C@@]34CCCN3C[C@H](F)C4)nc3c2CS(=O)(=O)[C@H](c2c(F)c(N)cc(C)c2C(F)(F)F)C3)C[C@@H]1CC#N` [Compound 3A, 2-((2S)-1-Acryloyl-4-((7S)-7-(3-amino-2-fluoro-5-methyl-6-(trifluoromethyl)phenyl)-2-(((2R,7AS)-2-fluorotetrahydro-1H-pyrrolazin-7a(5H)-yl)methoxy)-6,6-dioxo-7,8-di hydro-5H-thiaran[4,3-d]pyrimidin-4-yl)pyrazin-2-yl)acetonitrile], the IC50 was below 10 nM.

As for `C=CC(=O)N1CCN(c2nc(OC[C@@]34CCCN3C[C@H](F)C4)nc3c2CS(=O)(=O)[C@@H](c2nc(N)cc(C)c2C(F)(F)F)C3)[C@@H](C)C1` [Compound 5B, 1-((3S)-4-((7R)-7-(6-amino-4-methyl-3-(trifluoromethyl)pyridin-2-yl)-2-(((2R,7AS)-2-fluorotetrahydro-1H-pyrrolazin-7a(5H)-yl)methoxy)-6,6-dioxo-7,8-dihydro-5H-thiaran[4,3-d]pyrimidin-4-yl)-3-methylpyrazin-1-yl)prop-2-en-1-one], the IC50 is below 10 nM.

Consider `C=C(F)C(=O)N1CCN(c2nc(OC[C@@]34CCCN3C[C@H](F)C4)nc3c2CS(=O)(=O)[C@@H](c2c(F)c(N)cc(C)c2C(F)(F)F)C3)[C@@H](C)C1` [Compound 2B, 1-((3S)-4-((7R)-7-(3-amino-2-fluoro-5-methyl-6-(trifluoromethyl)phenyl)-2-(((2R,7A S)-2-fluorotetrahydro-1H-pyrrolazin-7a(5H)-yl)methoxy)-6,6-dioxo-7,8-dihydro-5H-thiaran[4,3-d]pyrimidin-4-yl)-3-methylpyrazin-1-yl)-2-fluoroprop-2-en-1-one], for which the IC50 was below 10 nM.

Turning to `C=C(F)C(=O)N1CCN(c2nc(OC[C@@]34CCCN3C[C@H](F)C4)nc3c2CS(=O)(=O)[C@@H](c2c(F)c(N)cc(C)c2C(F)(F)F)C3)C[C@@H]1CC#N` [Compound 4B, 2-((2S)-4-((7R)-7-(3-amino-2-fluoro-5-methyl-6-(trifluoromethyl)phenyl)-2-(((2R, 7A S)-2-fluorotetrahydro-1H-pyrrolazin-7a(5H)-yl)methoxy)-6,6-dioxo-7,8-dihydro-5H-thiaran[4,3-d]pyrimidin-4-yl)-1-(2-fluoroacryloyl)pyrazin-2-yl)acetonitrile], the IC50 was below 10 nM.

Turning to `C=CC(=O)N1CCN(c2nc(OC[C@@]34CCCN3C[C@H](F)C4)nc3c2CS(=O)(=O)[C@@H](c2c(F)c(N)cc(C)c2C(F)(F)F)C3)[C@@H](C)C1` [Compound 1B, 1-((3S)-4-((7R)-7-(3-amino-2-fluoro-5-methyl-6-(trifluoromethyl)phenyl)-2-(((2R,7A S)-2-fluorotetrahydro-1H-pyrrolazin-7a(5H)-yl)methoxy)-6,6-dioxo-7,8-dihydro-5H-thiaran[4,3-d]pyrimidin-4-yl)-3-methylpyrazin-1-yl)prop-2-en-1-one], the IC50 was below 10 nM.

`C=C(F)C(=O)N1CCN(c2nc(OC[C@@]34CCCN3C[C@H](F)C4)nc3c2CS(=O)(=O)[C@H](c2c(F)c(N)cc(C)c2C(F)(F)F)C3)C[C@@H]1CC#N` [Compound 4A, 2-((2S)-4-((7S)-7-(3-amino-2-fluoro-5-methyl-6-(trifluoromethyl)phenyl)-2-(((2R, 7A S)-2-fluorotetrahydro-1H-pyrrolazin-7a(5H)-yl)methoxy)-6,6-dioxo-7,8-dihydro-5H-thiaran[4,3-d]pyrimidin-4-yl)-1-(2-fluoroacryloyl)pyrazin-2-yl)acetonitrile]: the IC50 is below 10 nM.

`C=CC(=O)N1CCN(c2nc(OC[C@@]34CCCN3C[C@H](F)C4)nc3c2CS(=O)(=O)[C@@H](c2c(F)c(N)cc(C)c2C(F)(F)F)C3)C[C@@H]1CC#N` [Compound 3B, 2-((2S)-1-Acryloyl-4-((7R)-7-(3-amino-2-fluoro-5-methyl-6-(trifluoromethyl)phenyl) -2-(((2R,7AS)-2-fluorotetrahydro-1H-pyrrolazin-7a(5H)-yl)methoxy)-6,6-dioxo-7,8-dihydro-5H-thiaran[4,3-d]pyrimidin-4-yl)pyrazin-2-yl)acetonitrile]: the IC50 was below 10 nM.
